pIC50: −log10 of the molar value.
Key:
[1] = molecular target: T1, 5-hydroxytryptamine receptor 1A (Homo sapiens, UniProt P08908); experiment: In vitro binding affinity against 5-hydroxytryptamine 1A receptor using [3H]8-OH-DPAT in human CYP3A4 assay
T1 sequence (P08908 whole entry): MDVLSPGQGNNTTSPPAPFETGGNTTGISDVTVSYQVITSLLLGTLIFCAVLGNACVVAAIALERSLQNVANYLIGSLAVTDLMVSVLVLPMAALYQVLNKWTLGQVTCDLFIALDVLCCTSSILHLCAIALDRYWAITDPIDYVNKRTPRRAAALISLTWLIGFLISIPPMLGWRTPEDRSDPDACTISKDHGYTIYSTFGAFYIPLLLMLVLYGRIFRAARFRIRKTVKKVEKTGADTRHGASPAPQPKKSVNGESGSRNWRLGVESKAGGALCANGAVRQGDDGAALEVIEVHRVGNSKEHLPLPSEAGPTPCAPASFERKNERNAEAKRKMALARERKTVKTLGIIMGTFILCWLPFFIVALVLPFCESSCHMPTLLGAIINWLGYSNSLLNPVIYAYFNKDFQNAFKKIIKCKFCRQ

CYP3A4 = experiment: CYP3A4 metabolism half-life (t1/2); details: human

Row | pIC50 [1] | half-life (CYP3A4) [min] | SMILES
1 | 7.06 | 40.1 | CC(CCCN1C(=O)CC(C)(C)CC1=O)N1CCN(c2ncc(F)cn2)CC1 (stereo unspecified)
2 | – | 30.3 | CC1(C)CC(=O)N(CCCCN2CCN(c3ncccn3)CC2)C(=O)C1 [GEPIRONE]
3 | 7.92 | 7.8 | COc1ccccc1N1CCN(CC(O)CCN2C(=O)CC3(CCCC3)CC2=O)CC1 (stereo unspecified)
4 | 6.15 | 2.9 | CC(C)(CCN1C(=O)CC2(CCCC2)CC1=O)CN1CCN(c2ncccn2)CC1
5 | 6.36 | 20.4 | O=C1c2ccccc2C(=O)N1CCCCN1CCN(c2ncc(F)cn2)CC1
6 | 8.40 | 3.8 | CC(CCCN1C(=O)CC2(CCCC2)CC1=O)N1CCN(c2ncccn2)CC1 (stereo unspecified)
7 | 7.34 | 14.8 | CC(CCCN1C(=O)CC2(CCCC2)CC1=O)N1CCN(c2ncc(F)cn2)CC1 (stereo unspecified)
8 | 8.70 | 5.1 | COc1ccccc1N1CCN(CCCCN2C(=O)CC3(CCCC3)CC2=O)CC1
9 | 7.00 | 2.4 | CC(CCCN1C(=O)CC2(CCCC2)CC1=O)N1CCN(c2ccc(F)cc2)CC1 (stereo unspecified)
10 | 7.22 | 26.8 | O=C1c2ccccc2C(=O)N1CCCCN1CCN(c2ncccn2)CC1
11 | 7.16 | 3.8 | O=C1CC2(CCCC2)CC(=O)N1CCC(O)CN1CCN(c2ccc(F)cc2)CC1 (stereo unspecified)
12 | 6.68 | 18.2 | CC(CCCN1C(=O)c2ccccc2C1=O)N1CCN(c2ncc(F)cn2)CC1 (stereo unspecified)
13 | 7.19 | 3.2 | O=C1CC2(CCCC2)CC(=O)N1CCCCN1CCN(c2ccc(F)cc2)CC1
14 | 6.03 | 21.1 | COc1ccc(N2CCN(CCCCN3C(=O)CC4(CCCC4)CC3=O)CC2)cc1
15 | 6.69 | 78.3 | CC1(C)CC(=O)N(CCCCN2CCN(c3ncc(F)cn3)CC2)C(=O)C1
16 | 5.84 | 8.6 | CC(O)(CCN1C(=O)CC2(CCCC2)CC1=O)CN1CCN(c2ncccn2)CC1 (stereo unspecified)
17 | 6.08 | 10.2 | O=C1CC2(CCCC2)CC(=O)N1CCC(O)CN1CCN(c2ncccn2)CC1 (stereo unspecified)
18 | 7.20 | 52.3 | O=C1CC2(CCCC2)CC(=O)N1CCCCN1CCN(c2ncc(F)cn2)CC1
19 | 7.82 | 8 | O=C1CC2(CCCC2)CC(=O)N1CCCCN1CCN(c2ccccc2)CC1
20 | 6.34 | 5.5 | O=C1CC2(CCCC2)CC(=O)N1CCCCN1CCN(c2cnccn2)CC1

Row | SMILES | pIC50 [1] | half-life (CYP3A4) [min]
21 | O=C1CC2(CCCC2)CC(=O)N1CCC(O)CN1CCN(c2cnccn2)CC1 (stereo unspecified) | < 6.00 | 9.6
